Laboratory results published in patent US10039798B2, “Extracts of rosemary or hemerocallis fulva and methods of using same to promote circadian rhythm” (IN Ingredients, Inc., priority 2013, dated 2018).

Assays:
Format in all cases: cell-based, Porcine
Conditions in all cases: 1 μM, 5 μM or 20 μM, 24 hr at 37° C.
Bmal1 = Bmal1 immunofluorescence in iPEC-1 cells treated with ursolic acid
Protocol: (§1) iPEC-1 cells were grown as a monolayer in DMEM with 10% fetal bovine serum (FBS) and the necessary supplements at 37° C. in a humidified incubator with 5% CO2. iPEC1 cells were seeded on 35 mm dishes. Experiments were initiated 48 hr after plating. Cells were treated with saline or with ursolic acid at three separate dosages (1 μM; 5 μM; or 20 μM) in the medium for 24 hr at 37° C. The cells were then washed with ice-cold PBS and fixed with 4% paraformaldehyde for 10 min at room temperature followed by permeabilization with 0.3% Triton X-100 for 10 min. After being washed with PBS three times, cells were incubated for 1 hr in PBS containing 10% normal goat serum blocking solution. The cells were subjected to immunofluorescence staining with the target specific antibodies (SIRT1, CLOCK and Bmal1) overnight at 4° C. The cells were then washed with cold PBS three times for 3 min each, and incubated with Alexa-labeled secondary antibodies (Invitrogen) at room temperature for 1 h. The cells were examined by fluorescence microscopy (a Nikon TE2000-S microscope, Nikon, Tokyo, Japan).

CLOCK = CLOCK immunofluorescence in iPEC-1 cells treated with ursolic acid
Protocol: as §1

SIRT1 = SIRT1 immunofluorescence in iPEC-1 cells treated with ursolic acid
Protocol: as §1

SMILES: C[C@H]1[C@H](C)CC[C@]2(C(=O)O)CC[C@]3(C)C(=CC[C@@H]4[C@@]5(C)CC[C@H](O)C(C)(C)[C@@H]5CC[C@]43C)[C@H]12 [ursolic acid]
- intensity of immunofluorescence of Bmal1 compared with controls (Bmal1): significantly induced the intensity of immunofluorescence
- intensity of immunofluorescence of CLOCK compared with controls (CLOCK): significantly induced the intensity of immunofluorescence
- intensity of immunofluorescence of SIRT1 compared with controls (SIRT1): significantly induced the intensity of immunofluorescence
